# Legend:
# Type in all cases: in vivo
# [1] = test system: Italian ryegrass (Lolium multiflorum); assay: Test A preemergence, visual injury rating
# Procedure, shortened: (§1)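 Visual 0–100 rating (100 = complete control) taken about 10 d post-treatment relative to untreated checks. Preemergence: directed soil spray on sown loam/sand pots. Postemergence: seedlings 2–10 cm, 1–2 leaf. Non-phytotoxic solvent formulation with surfactant.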
# [2] = test system: giant foxtail (Setaria faberii); assay: Test A preemergence, visual injury rating
# Procedure, shortened: as §1
# [3] = test system: pigweed (Amaranthus retroflexus); assay: Test A preemergence, visual injury rating
# Procedure, shortened: as §1
# [4] = test system: ragweed (common ragweed, Ambrosia elatior); assay: Test A preemergence, visual injury rating
# Procedure, shortened: as §1
# [5] = test system: blackgrass (Alopecurus myosuroides); assay: Test C preemergence, plant response rating; conditions: Preemergence
# Procedure, shortened: (§2)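 Preemergence: seeds sown in loam–sand blend or silt loam and sprayed with test chemicals in a non-phytotoxic surfactant-containing solvent. Postemergence: potted plants at 2–18 cm (1–4-leaf stage) sprayed with the same formulation. After 13–15 d in greenhouse, visual rating versus controls on 0 (no effect) to 100 (complete control) scale.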
# [6] = test system: corn (Zea mays); assay: Test C preemergence, plant response rating; conditions: Preemergence
# Procedure, shortened: as §2
# [7] = test system: crabgrass, large (large crabgrass, Digitaria sanguinalis); assay: Test C preemergence, plant response rating; conditions: Preemergence
# Procedure, shortened: as §2
# [8] = test system: foxtail, giant (giant foxtail, Setaria faberii); assay: Test C preemergence, plant response rating; conditions: Preemergence
# Procedure, shortened: as §2
# [9] = test system: lambsquarters (Chenopodium album); assay: Test C preemergence, plant response rating; conditions: Preemergence
# Procedure, shortened: as §2
# [10] = test system: morningglory (Ipomoea coccinea); assay: Test C preemergence, plant response rating; conditions: Preemergence
# Procedure, shortened: as §2
# [11] = test system: nutsedge, yellow (yellow nutsedge, Cyperus esculentus); assay: Test C preemergence, plant response rating; conditions: Preemergence
# Procedure, shortened: as §2
# [12] = test system: oilseed rape (Brassica napus); assay: Test C preemergence, plant response rating; conditions: Preemergence
# Procedure, shortened: as §2
# [13] = test system: ragweed (common ragweed, Ambrosia elatior); assay: Test C preemergence, plant response rating; conditions: Preemergence
# Procedure, shortened: as §2
# [14] = test system: ryegrass, Italian (Italian ryegrass, Lolium multiflorum); assay: Test C preemergence, plant response rating; conditions: Preemergence
# Procedure, shortened: as §2
# [15] = test system: soybean (Glycine max); assay: Test C preemergence, plant response rating; conditions: Preemergence
# Procedure, shortened: as §2
# [16] = test system: velvetleaf (Abutilon theophrasti); assay: Test C preemergence, plant response rating; conditions: Preemergence
# Procedure, shortened: as §2
# [17] = test system: waterhemp (common waterhemp, Amaranthus rudis); assay: Test C preemergence, plant response rating; conditions: Preemergence
# Procedure, shortened: as §2
# [18] = test system: wheat (winter wheat, Triticum aestivum); assay: Test C preemergence, plant response rating; conditions: Preemergence
# Procedure, shortened: as §2
# [19] = 31 g ai/ha, 0 to 100 scale, 0 no effect, 100 complete control
# [20] = 125 g ai/ha, 0 to 100 scale (0 no effect, 100 complete control)
compound,measurement,setting,value
O=C(CCC(F)(F)F)c1c(Br)cccc1Oc1ncc(Cl)cn1 [Compound 92],"Plant response rating, Ryegrass, Italian",[1]; [19],30
same,"Ryegrass, Italian plant response rating",[1]; [20],80
same,"Plant response rating, Foxtail, Giant",[2]; [19],100
same,"Foxtail, Giant plant response rating",[2]; [20],100
same,"Plant response rating, Pigweed",[3]; [19],100
same,Pigweed plant response rating,[3]; [20],100
same,"Plant response rating, Ragweed",[4]; [19],0
same,Ragweed plant response rating,[4]; [20],0
same,"Plant response rating, Blackgrass","[5]; 125 g ai/ha, scale of 0 to 100",100
same,"Plant response rating, Blackgrass","[5]; 16 g ai/ha, scale 0 to 100",45
same,"Plant response rating, Blackgrass","[5]; 31 g ai/ha, scale 0 to 100",80
same,"Plant response rating, Blackgrass","[5]; 62 g ai/ha, scale 0 to 100",100
same,"Plant response rating, Corn","[6]; 125 g ai/ha, scale of 0 to 100",40
same,"Plant response rating, Corn","[6]; 16 g ai/ha, scale 0 to 100",0
same,"Plant response rating, Corn","[6]; 31 g ai/ha, scale 0 to 100",15
same,"Plant response rating, Corn","[6]; 62 g ai/ha, scale 0 to 100",35
same,"Plant response rating, Crabgrass, Large","[7]; 125 g ai/ha, scale of 0 to 100",100
same,"Plant response rating, Crabgrass, Large","[7]; 16 g ai/ha, scale 0 to 100",100
same,"Plant response rating, Crabgrass, Large","[7]; 31 g ai/ha, scale 0 to 100",100
same,"Plant response rating, Crabgrass, Large","[7]; 62 g ai/ha, scale 0 to 100",100
same,"Plant response rating, Foxtail, Giant","[8]; 125 g ai/ha, scale of 0 to 100",100
same,"Plant response rating, Foxtail, Giant","[8]; 31 g ai/ha, scale 0 to 100",100
same,"Plant response rating, Foxtail, Giant","[8]; 62 g ai/ha, scale 0 to 100",100
same,"Plant response rating, Lambsquarters","[9]; 125 g ai/ha, scale of 0 to 100",100
same,"Plant response rating, Lambsquarters","[9]; 31 g ai/ha, scale 0 to 100",100
same,"Plant response rating, Lambsquarters","[9]; 62 g ai/ha, scale 0 to 100",100
same,"Plant response rating, Morningglory","[10]; 125 g ai/ha, scale of 0 to 100",70
same,"Plant response rating, Morningglory","[10]; 31 g ai/ha, scale 0 to 100",40
same,"Plant response rating, Morningglory","[10]; 62 g ai/ha, scale 0 to 100",60
same,"Plant response rating, Nutsedge, Yellow","[11]; 125 g ai/ha, scale of 0 to 100",50
same,"Plant response rating, Nutsedge, Yellow","[11]; 31 g ai/ha, scale 0 to 100",5
same,"Plant response rating, Nutsedge, Yellow","[11]; 62 g ai/ha, scale 0 to 100",5
same,"Plant response rating, Oilseed Rape","[12]; 125 g ai/ha, scale of 0 to 100",100
same,"Plant response rating, Oilseed Rape","[12]; 31 g ai/ha, scale 0 to 100",100
same,"Plant response rating, Oilseed Rape","[12]; 62 g ai/ha, scale 0 to 100",100
same,"Plant response rating, Ragweed","[13]; 125 g ai/ha, scale of 0 to 100",60
same,"Plant response rating, Ragweed","[13]; 31 g ai/ha, scale 0 to 100",55
same,"Plant response rating, Ragweed","[13]; 62 g ai/ha, scale 0 to 100",60
same,"Plant response rating, Ryegrass, Italian","[14]; 125 g ai/ha, scale of 0 to 100",95
same,"Plant response rating, Ryegrass, Italian","[14]; 31 g ai/ha, scale 0 to 100",5
same,"Plant response rating, Ryegrass, Italian","[14]; 62 g ai/ha, scale 0 to 100",55
same,"Plant response rating, Soybean","[15]; 125 g ai/ha, scale of 0 to 100",60
same,"Plant response rating, Soybean","[15]; 31 g ai/ha, scale 0 to 100",40
same,"Plant response rating, Soybean","[15]; 62 g ai/ha, scale 0 to 100",70
same,"Plant response rating, Velvetleaf","[16]; 125 g ai/ha, scale of 0 to 100",100
same,"Plant response rating, Velvetleaf","[16]; 31 g ai/ha, scale 0 to 100",75
same,"Plant response rating, Velvetleaf","[16]; 62 g ai/ha, scale 0 to 100",100
same,"Plant response rating, Waterhemp","[17]; 125 g ai/ha, scale of 0 to 100",100
same,"Plant response rating, Waterhemp","[17]; 31 g ai/ha, scale 0 to 100",100
same,"Plant response rating, Waterhemp","[17]; 62 g ai/ha, scale 0 to 100",100
same,"Plant response rating, Wheat","[18]; 125 g ai/ha, scale of 0 to 100",20
same,"Plant response rating, Wheat","[18]; 31 g ai/ha, scale 0 to 100",0
same,"Plant response rating, Wheat","[18]; 62 g ai/ha, scale 0 to 100",0
